The values that follow come from patent US11911610B2, “Methods for restoring sensitivity to TTFields in TTFields-resistant cancer cells with PTGER3 inhibitors” (Novocure GmbH, priority 2019, dated 2024).

Assay [1] deals with TTFields-resistant GBM cells (U87R, L428R, and LN827R). As to the kind of experiment: Reduction of resistance to TTFields in TTFields-resistant GBM cells (FIG. 13). As to conditions: Aspirin+TTFields compared with Vehicle+TTFields, 3 days. Format: cell-based, human. As to the method:
(§1) For the experiments summarized in FIG. 13, resistant human GBM cells were treated with either vehicle control or aspirin and with or without TTFields for 3 days. Drug was replenished daily. The numbers of live cells were quantified using a cell counter at the end point.

Another assay deals with LN428R resistant cells. Nature of the assay: Live cell count of TTFields-resistant GBM cells treated with drug with or without TTFields for 3 days. Type of assay: cell-based, human. To be noted: aspirin + TTFields, drug replenished daily, reduced from 85 k/dish, TTFields alone 70 k/dish. As to the method: as §1
In another assay the test system is LN827R cells. The assay is described as above. To be noted: aspirin + TTFields, drug replenished daily, reduced from around 125 k/dish, TTFields alone increased count slightly. Type of assay: cell-based, human. The method, then:
as §1

The subject of a further assay is U87R resistant cells. The description is as above. Type of assay: cell-based, human. To be noted: for sensitivity to TTFields: inhibitor + TTFields 200 kHz compared with TTFields alone, FIG. 14. As to the method:
as §1
PTGER3 inhibitors can restore sensitivity to TTFields.

Assay [2] deals with human GBM cell lines (LN827). Nature of the assay: Resistant cell line generation experiment with PTGER3 inhibitor (FIG. 16). Type of assay: cell-based. As to conditions: L798,106 + TTFields, 5 cycles of 7 days. The source says:
For the experiments summarized in FIG. 2, TTFields-resistant human GBM cell lines were generated by seeding LN827 cells at a density of 10,000/ml and treated with TTFields for in repeated 1-week cycles at a frequency of 200 kHz. For each cycle, cells were counted on day 2, day 4 and day 7. At the end of each cycle, the cells were re-seeded at the same density as on day 0, harvested and processed for RNAseq and cryopreservation for future analysis. Resistant cells emerged after at least four weeks of TTFields treatment.
The resistant cell line generation experiment using the original human GBM cell lines from FIG. 2 was repeated with two more groups that included a PTGER3 inhibitor (L798,106 and L798,106+TTFields) (FIG. 16). […] Cells were seeded and counted at the same cell density and time points. Each cycle lasts for 7 days within total of 5 cycles.

SMILES strings stand for the structures.

For the compound `CC(=O)Oc1ccccc1C(=O)O` [aspirin], the “resistance to TTFields” value in assay [1] is recorded as “significantly reduces resistance to TTFields”. Further, the live cell count in the assay with LN428R resistant cells was 40 k/dish; in the assay on LN827R cells, 90 k/dish; with U87R resistant cells (aspirin + TTFields, drug replenished daily, reduced from 150 k/dish, TTFields alone 125 k/dish), 100 k/dish.

As to `Cc1cn(Cc2ccc(Cl)cc2Cl)c2c(/C=C/C(=O)NS(=O)(=O)c3cc(Cl)c(Cl)s3)cc(F)cc12` [DG041], the live cell count result in the assay with U87R resistant cells (DG041 50 nM + TTFields 200 kHz, reduced from around 160 k/dish, TTFields alone 100 k/dish) is “around 40 k/dish”. Also, the “sensitivity to TTFields” value with U87R resistant cells is on record as “restores sensitivity to TTFields”.

`COc1ccc(Br)cc1S(=O)(=O)NC(=O)/C=C/c1ccccc1Cc1ccc2ccccc2c1` [L798,106]: the “development of resistance to TTFields” value in assay [2] was “prevented the development of resistance to TTFields”. Also, the live cell count in the assay with U87R resistant cells (L798,106 0.5 μM + TTFields 200 kHz, reduced from around 200 k/dish, TTFields alone 125 k/dish) was 25 k/dish. For the same compound, the “sensitivity to TTFields” value with U87R resistant cells is “restores sensitivity to TTFields”.
